In publication PMC4467398, “Preclinical antitumor activity of ST7612AA1: a new oral thiol-based histone deacetylase (HDAC) inhibitor” (Oncotarget, 2014):

System: DOHH2 and TMD8 DLBCL cells
Test: Gene expression profiling (HumanHT-12 v4 BeadChip, limma), ST7612AA1 300 nM 8 hrs vs DMSO
Type: cell-based, human
Conditions: 300 nM 8 hrs

Compound: CC(=O)SCCCCC[C@H](NC(=O)[C@H]1CCC(=O)N1)C(=O)Nc1ccccc1 [ST7612AA1]
- AveExpr.ST7612 1999-08-31 (probe ILMN_1659953): 8.50E-01
- AveExpr.ST7612 (probe ILMN_1816244): 7.08E-01
- AveExpr.ST7612 (probe ILMN_1827736): 8.76E-01
- AveExpr.ST7612 (probe ILMN_1909886): 7.98E-01
- AveExpr.ST7612 ABCA7 (probe ILMN_1743205): 7.64E-01
- AveExpr.ST7612 ADARB1 (probe ILMN_1679797): 7.60E-01
- AveExpr.ST7612 ALDH2 (probe ILMN_1793859): 8.03E-01
- AveExpr.ST7612 ALOX5 (probe ILMN_1680996): 8.46E-01
- AveExpr.ST7612 AMOT (probe ILMN_1792409): 7.65E-01
- AveExpr.ST7612 APAF1 (probe ILMN_1659463): 8.78E-01
- AveExpr.ST7612 APLP1 (probe ILMN_1763834): 8.17E-01
- AveExpr.ST7612 ARL6IP1 (probe ILMN_1708416): 6.93E-01
- AveExpr.ST7612 ATG2A (probe ILMN_1756006): 8.92E-01
- AveExpr.ST7612 ATP6V0C (probe ILMN_1773849): 8.22E-01
- AveExpr.ST7612 ATP6V1G2 (probe ILMN_1654541): 8.47E-01
- AveExpr.ST7612 ATP7B (probe ILMN_1722056): 8.88E-01
- AveExpr.ST7612 AVPI1 (probe ILMN_1671731): 8.94E-01
- AveExpr.ST7612 AZI1 (probe ILMN_1746206): 7.59E-01
- AveExpr.ST7612 BIK (probe ILMN_1770505): 7.57E-01
- AveExpr.ST7612 BLVRB (probe ILMN_1797793): 8.74E-01
- AveExpr.ST7612 BNIP3L (probe ILMN_1718961): 8.34E-01
- AveExpr.ST7612 BPHL (probe ILMN_1657746): 8.91E-01
- AveExpr.ST7612 C3orf34 (probe ILMN_1665217): 6.96E-01
- AveExpr.ST7612 C4orf32 (probe ILMN_1700257): 8.83E-01
- AveExpr.ST7612 C12orf52 (probe ILMN_1667857): 6.98E-01
- AveExpr.ST7612 C13orf15 (probe ILMN_1658494): 7.74E-01
- AveExpr.ST7612 C14orf173 (probe ILMN_2393450): 7.70E-01
- AveExpr.ST7612 C14orf179 (probe ILMN_1756877): 7.81E-01
- AveExpr.ST7612 CA2 (probe ILMN_2199439): 7.93E-01
- AveExpr.ST7612 CAMLG (probe ILMN_1714599): 7.30E-01
- AveExpr.ST7612 CASC4 (probe ILMN_2325574): 6.85E-01
- AveExpr.ST7612 CBX7 (probe ILMN_1657361): 7.49E-01
- AveExpr.ST7612 CCDC24 (probe ILMN_1718771): 6.89E-01
- AveExpr.ST7612 CCDC92 (probe ILMN_1731107): 8.05E-01
- AveExpr.ST7612 CD74 (probe ILMN_1761464): 8.47E-01
- AveExpr.ST7612 CD74 (probe ILMN_2379644): 7.27E-01
- AveExpr.ST7612 CDC2L6 (probe ILMN_1676891): 6.96E-01
- AveExpr.ST7612 CDC42EP5 (probe ILMN_1774982): 8.75E-01
- AveExpr.ST7612 CDK2AP2 (probe ILMN_1690653): 8.01E-01
- AveExpr.ST7612 CECR1 (probe ILMN_1751851): 8.43E-01
- AveExpr.ST7612 CLCC1 (probe ILMN_1671933): 8.48E-01
- AveExpr.ST7612 CLIC4 (probe ILMN_2063586): 7.49E-01
- AveExpr.ST7612 CMTM8 (probe ILMN_1710124): 7.00E-01
- AveExpr.ST7612 COTL1 (probe ILMN_1788283): 6.87E-01
- AveExpr.ST7612 CRIP1 (probe ILMN_1656920): 8.56E-01
- AveExpr.ST7612 CRYM (probe ILMN_1779241): 8.32E-01
- AveExpr.ST7612 CSRP1 (probe ILMN_1811921): 7.01E-01
- AveExpr.ST7612 CSTB (probe ILMN_1761797): 8.06E-01
- AveExpr.ST7612 CTSB (probe ILMN_2359742): 8.56E-01
- AveExpr.ST7612 CXADR (probe ILMN_1796925): 8.18E-01
- AveExpr.ST7612 CXorf57 (probe ILMN_1703279): 8.25E-01
- AveExpr.ST7612 CYB5R1 (probe ILMN_1729237): 7.59E-01
- AveExpr.ST7612 CYB5R3 (probe ILMN_1740441): 7.06E-01
- AveExpr.ST7612 CYP2R1 (probe ILMN_2119774): 7.88E-01
- AveExpr.ST7612 DEF8 (probe ILMN_1767509): 8.37E-01
- AveExpr.ST7612 DGCR6L (probe ILMN_3245688): 7.47E-01
- AveExpr.ST7612 DNMT3B (probe ILMN_1794692): 8.14E-01
- AveExpr.ST7612 DSTN (probe ILMN_1706426): 7.52E-01
- AveExpr.ST7612 DYNC1H1 (probe ILMN_1780302): 6.97E-01
- AveExpr.ST7612 DYNLL2 (probe ILMN_1772796): 8.61E-01
- AveExpr.ST7612 DYRK3 (probe ILMN_2400322): 6.97E-01
- AveExpr.ST7612 DYRK3 (probe ILMN_2400326): 8.26E-01
- AveExpr.ST7612 ECHS1 (probe ILMN_1718132): 7.78E-01
- AveExpr.ST7612 EGR1 (probe ILMN_1762899): 8.42E-01
- AveExpr.ST7612 ELOF1 (probe ILMN_1723185): 7.14E-01
- AveExpr.ST7612 ENC1 (probe ILMN_1779147): 7.93E-01
- AveExpr.ST7612 ENO2 (probe ILMN_1765796): 7.11E-01
- AveExpr.ST7612 ERRFI1 (probe ILMN_1665510): 7.44E-01
- AveExpr.ST7612 ESAM (probe ILMN_1668092): 7.54E-01
- AveExpr.ST7612 F11R (probe ILMN_2342033): 8.81E-01
- AveExpr.ST7612 FAM65A (probe ILMN_1680037): 7.70E-01
- AveExpr.ST7612 FAM116B (probe ILMN_1659029): 7.74E-01
- AveExpr.ST7612 FAM120B (probe ILMN_1679641): 7.62E-01
- AveExpr.ST7612 FAM149B1 (probe ILMN_3245452): 7.21E-01
- AveExpr.ST7612 FAM167A (probe ILMN_3248511): 7.13E-01
- AveExpr.ST7612 FBXO18 (probe ILMN_1729430): 7.97E-01
- AveExpr.ST7612 FCGRT (probe ILMN_1705302): 6.92E-01
- AveExpr.ST7612 FGD2 (probe ILMN_2115005): 7.14E-01
- AveExpr.ST7612 FGF9 (probe ILMN_1762531): 7.84E-01
- AveExpr.ST7612 FHL1 (probe ILMN_1805842): 7.76E-01
- AveExpr.ST7612 FLJ22795 (probe ILMN_2150802): 8.56E-01
- AveExpr.ST7612 FOXC1 (probe ILMN_1738401): 8.63E-01
- AveExpr.ST7612 FOXO1 (probe ILMN_1738816): 8.61E-01
- AveExpr.ST7612 FOXO4 (probe ILMN_1712095): 6.93E-01
- AveExpr.ST7612 FSD1 (probe ILMN_1813490): 7.25E-01
- AveExpr.ST7612 FUCA1 (probe ILMN_1752728): 8.57E-01
- AveExpr.ST7612 G6PD (probe ILMN_1697559): 6.93E-01
- AveExpr.ST7612 GABARAPL2 (probe ILMN_1796458): 7.62E-01
- AveExpr.ST7612 GAMT (probe ILMN_1756469): 8.74E-01
- AveExpr.ST7612 GATM (probe ILMN_1729180): 7.75E-01
- AveExpr.ST7612 GCH1 (probe ILMN_1812759): 7.11E-01
- AveExpr.ST7612 GOLGB1 (probe ILMN_1747935): 7.13E-01
- AveExpr.ST7612 GPT2 (probe ILMN_1684158): 8.12E-01
- AveExpr.ST7612 GRN (probe ILMN_1724250): 8.24E-01
- AveExpr.ST7612 HABP4 (probe ILMN_2107991): 7.82E-01
- AveExpr.ST7612 HAGH (probe ILMN_1772731): 8.84E-01
- AveExpr.ST7612 HERC1 (probe ILMN_1786211): 7.40E-01
- AveExpr.ST7612 HERPUD1 (probe ILMN_2374159): 8.50E-01
- AveExpr.ST7612 HEY1 (probe ILMN_1788203): 8.91E-01
- AveExpr.ST7612 HEY2 (probe ILMN_1682034): 7.56E-01
- AveExpr.ST7612 HIST1H1C (probe ILMN_1757406): 8.24E-01
- AveExpr.ST7612 HIST2H2AA3 (probe ILMN_2144426): 8.03E-01
- AveExpr.ST7612 HLA-DPA1 (probe ILMN_1772218): 8.12E-01
- AveExpr.ST7612 HLA-DQA1 (probe ILMN_1808405): 8.25E-01
- AveExpr.ST7612 HLA-DRB4 (probe ILMN_1752592): 7.27E-01
- AveExpr.ST7612 HLA-E (probe ILMN_1765258): 8.07E-01
- AveExpr.ST7612 HLTF (probe ILMN_1673820): 7.48E-01
- AveExpr.ST7612 HOOK2 (probe ILMN_1682147): 7.36E-01
- AveExpr.ST7612 HSPA1B (probe ILMN_1660436): 7.16E-01
- AveExpr.ST7612 ID1 (probe ILMN_1664861): 7.75E-01
- AveExpr.ST7612 IFFO1 (probe ILMN_2348268): 8.07E-01
- AveExpr.ST7612 IGSF3 (probe ILMN_1704353): 8.50E-01
- AveExpr.ST7612 ITGB1 (probe ILMN_1714820): 7.06E-01
- AveExpr.ST7612 ITPKA (probe ILMN_1776516): 7.10E-01
- AveExpr.ST7612 JAK1 (probe ILMN_1793384): 7.91E-01
- AveExpr.ST7612 KLHL5 (probe ILMN_1706687): 8.05E-01
- AveExpr.ST7612 KLRAQ1 (probe ILMN_3271092): 7.11E-01
- AveExpr.ST7612 LCMT1 (probe ILMN_1688452): 7.21E-01
- AveExpr.ST7612 LCMT1 (probe ILMN_2336186): 7.52E-01
- AveExpr.ST7612 LMNA (probe ILMN_1737394): 7.98E-01
- AveExpr.ST7612 LOC151162 (probe ILMN_3238058): 7.72E-01
- AveExpr.ST7612 LOC253039 (probe ILMN_3236498): 8.10E-01
- AveExpr.ST7612 LOC283683 (probe ILMN_1659327): 8.30E-01
- AveExpr.ST7612 LOC388588 (probe ILMN_1749834): 7.07E-01
- AveExpr.ST7612 LOC654191 (probe ILMN_1762308): 7.84E-01
- AveExpr.ST7612 LOC727935 (probe ILMN_1691616): 7.14E-01
- AveExpr.ST7612 LOC728014 (probe ILMN_1711699): 8.58E-01
- AveExpr.ST7612 LOC729495 (probe ILMN_3297510): 7.45E-01
- AveExpr.ST7612 LOC730101 (probe ILMN_3305735): 7.41E-01
- AveExpr.ST7612 LOC730415 (probe ILMN_3228688): 6.95E-01
- AveExpr.ST7612 LOC731314 (probe ILMN_1785756): 8.31E-01
- AveExpr.ST7612 LOC100128163 (probe ILMN_3182893): 7.83E-01
- AveExpr.ST7612 LOC100131727 (probe ILMN_3292990): 7.73E-01
- AveExpr.ST7612 LOC100133583 (probe ILMN_3214389): 8.94E-01
- AveExpr.ST7612 LOC100133678 (probe ILMN_3249667): 8.11E-01
- AveExpr.ST7612 LOC100134361 (probe ILMN_3241081): 8.59E-01
- AveExpr.ST7612 LRCH4 (probe ILMN_2157075): 8.54E-01
- AveExpr.ST7612 LRRC1 (probe ILMN_1755383): 7.83E-01
- AveExpr.ST7612 LTA4H (probe ILMN_1690342): 7.50E-01
- AveExpr.ST7612 LYRM5 (probe ILMN_1744534): 7.90E-01
- AveExpr.ST7612 LYSMD4 (probe ILMN_2159859): 6.95E-01
- AveExpr.ST7612 MAP1LC3B (probe ILMN_1703244): 7.73E-01
- AveExpr.ST7612 MAP2K1 (probe ILMN_1694240): 7.15E-01
- AveExpr.ST7612 MAPRE2 (probe ILMN_1695276): 7.72E-01
- AveExpr.ST7612 MARCKSL1 (probe ILMN_1714433): 8.47E-01
- AveExpr.ST7612 MAST3 (probe ILMN_1738749): 7.21E-01
- AveExpr.ST7612 MNS1 (probe ILMN_2157240): 7.07E-01
- AveExpr.ST7612 MTE (probe ILMN_2136089): 8.56E-01
- AveExpr.ST7612 MYBL1 (probe ILMN_3241046): 7.69E-01
